The values below come from US5565561A, “Natural substance cyclamenol and chemical derivatives” (Bayer Aktiengesellschaft, priority 1992, dated 1996).

One assay deals with infarcted cardiac tissue. Briefly: Reduction of the infarct size in the rat infarct model. In kind it is in vivo, Wistar rats. The settings on record: 1 mg/kg each before occlusion and before reperfusion, jugular vein infusion; average and standard deviation, 11 rats. On the procedure:
After a 5-minute post-operative recovery phase, the compound from Example 1 in a dose of 1 mg/kg dissolved in 100% DMSO or solvents was infused for 6 min into the catheterized jugular vein of the ventilated rats and the coronary artery was occluded for 30 min. At the 25 minute point of the occlusion, the second administration of the compound from Example 1 or solvent is carried out under the conditions described above. After the end of the infusion and occulsion phase, the ligature was opened and the heart was reperfused for 90 min.
For histological staining of the infarcted cardiac tissue, the heart was perfused ex vivo retrogressively with triphenyltetrazolium chloride (TTC, 1.5%) in 20 mM potassium phosphate buffer for 15 min and with 0.9% NaCl for 10 min at 37° C. and at a perfusion pressure of 100 mm Hg. The infarct sizes were calculated in percent by weight of infarcted to non-infarcted tissue and indicated in percent as average values and their standard deviations of 11 rats treated with the compound from Example 1 and of 11 treated with solvent.

In assay [1] the target is T1, Myeloperoxidase from human polymorphonuclear neutrophils (Homo sapiens, UniProt P05164).
T1 construct: The latter were isolated from fresh venous whole blood; endogenous in cells; host or cells: human polymorphonuclear neutrophils isolated from fresh venous whole blood; lysed with cetyltrimethylammonium bromide, 40,000 g supernatant
T1 sequence (P05164 279-745 limits assumed): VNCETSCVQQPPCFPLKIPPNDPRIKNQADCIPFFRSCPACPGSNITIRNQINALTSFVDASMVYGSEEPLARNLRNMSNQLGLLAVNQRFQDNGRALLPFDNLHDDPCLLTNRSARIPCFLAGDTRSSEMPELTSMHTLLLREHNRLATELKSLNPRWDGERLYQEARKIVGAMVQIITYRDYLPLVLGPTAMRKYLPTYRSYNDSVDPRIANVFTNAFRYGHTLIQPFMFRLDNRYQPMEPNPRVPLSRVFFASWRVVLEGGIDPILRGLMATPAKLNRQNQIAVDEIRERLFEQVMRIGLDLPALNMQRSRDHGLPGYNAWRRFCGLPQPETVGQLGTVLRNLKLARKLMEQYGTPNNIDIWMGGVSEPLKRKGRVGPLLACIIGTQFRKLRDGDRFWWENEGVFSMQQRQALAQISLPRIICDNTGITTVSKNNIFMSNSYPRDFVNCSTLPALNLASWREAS
T1 sequence (P05164 165-278 limits assumed): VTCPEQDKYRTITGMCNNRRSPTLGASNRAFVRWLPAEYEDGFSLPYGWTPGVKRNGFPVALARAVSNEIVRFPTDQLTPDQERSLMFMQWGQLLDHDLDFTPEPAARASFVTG
Briefly: Inhibition of myeloperoxidase activity (ortho-dianisidine/H2O2, absorbance at 490 nm). In kind it is biochemical. To be noted: pH 6.0, 30° C. The procedure:
Myeloperoxidase from human polymorphonuclear neutrophils was used for the measurements. The latter were isolated from fresh venous whole blood according to the method of D. English and B. R. Andersen, Journal of Immunological Methods 5, (1974) 249-252.
10^7 cells were lysed at 0° C. for 10 min using 1 ml of 0.5% cetyltrimethylammonium bromide in 50 mmol/l sodium phosphate buffer pH 6.0, frozen and directly thawed again. This process was repeated twice. The suspension was then centrifuged at 40,000 g for 10 min. The supernatant was diluted with 50 mmol/l sodium phosphate buffer pH 6.0 according to its myeloperoxidase activity and used for the tests.
To carry out the tests, 10 μl of test sample are added to a dimethyl sulphoxide-containing solution (max. v/v 30%) with 30 μl of the myeloperoxidase solution prepared as described above=1-2.5 μg of protein, in a microtitre plate (Greiner) with a smooth bottom. The reaction is started by addition of a test mixture consisting of 250 μl of 50 mmol/l sodium phosphate buffer pH 6.0, 10 μl of 0.5×10^-3 mmol/l H2 O2 and 10 μl of 2.5×10^-2 mol/l ortho-dianisidine in dimethyl sulphoxide. The increase in the absorbance is measured at 490 nm in an Elisa reader at 30° C. 6 measurements are carried out at an interval of 2 min and the increase in absorbance per minute is calculated. A control which instead of a test sample contains only the corresponding amount of dimethyl sulphoxide is prepared as the 100% value and then the inhibition by the sample is calculated. All measurements are carried out as a triplicate determination.

Assay [2] has as its system Leucocyte adhesion in small venules. Briefly: Leucocyte adhesion in small venules of the hamster cheek pouch. In kind it is in vivo. The settings on record: Mesocricetus auratus, iv, adhesion caused by the preparation, read-out: dose from which leucocyte adhesion is significantly reduced. The source says:
(§1) 3. Leucocyte adhesion in small venules was investigated in the hamster cheek pouch (preparation according to Duling, MVR 5, 423-429, 1973). An increased adhesion is caused by the preparatory preparation of the cheek pouch. […] The determination of the myeloperoxidase activity as a direct measure of the accumulation of neutrophilic leucocytes gives increases of around 80-100% compared to the control.

Assay [3] has as its system myeloperoxidase activity (accumulation of neutrophilic leucocytes). Put plainly: LTB4-superfused hamster cheek pouch, myeloperoxidase activity as measure of accumulation of neutrophilic leucocytes. The settings on record: 1 mg/kg i.v.; cheek pouch superfused with LTB4 for 10 min. In kind it is in vivo.
Description: as §1

Turning to `CC1C=CC=CC=CC=CC(O)CC=CC=CC=CC(=O)NC1` (centres unmarked) [Example 1, Cyclamenol], in the assay on infarcted cardiac tissue, the “reduction of infarct size” value came to 12.2±4.8% and the “reduction of infarct size (first value)” value came to 19.0±6.0%. This compound also showed an inhibition at 0.1 µM in assay [1] (0.1 μmol/l) of 12%. In addition, at 1 µM the inhibition in assay [1] (1 μmol/l) was 28%. This compound gave an inhibition at 10 µM in assay [1] (10 μmol/l) of 45%. Besides, 50 µM produced 60% inhibition in assay [1] (50 μmol/l). Moreover, the minimal effective dose in assay [2] was ≥ 0.1 mg/kg. Also, the “effect on the rise in MPO activity” value in assay [3] was “prevents the rise in the MPO activity”.
